Tests used:
[1] = test system: mouse splenocytes; assay: Mouse splenocytes cytotoxicity assay (CTG); assay type: cell-based; settings: Splenocyte, CD3e/CD28 activated Balb/c splenocytes, 72 hr
Method: IC50 values to look at cytotoxicity of compounds on CD3e/CD28 induced splenocytes, was determined in mouse splenocytes isolated from Balb/c mice. Mouse splenocytes (2.5×10^5 cells/well/160 μl) were activated with Anti-mouse CD3e (0.5 μg/mL, coated overnight at 4° C.; Cat #14-0032-82, eBiosciences) and then incubated with serial dilutions of compounds (3 fold, 8 point dose response starting at 30 μM) and treated with Anti-mouse CD28 (1 μg/mL soluble; Cat #16-0289-81, eBiosciences). Splenocytes were further incubated under cell culture conditions for 72 hr after which assay was terminated by addition of CTG. Plate was incubated for 15 min at 37° C., 5% CO2 and luminescence was measured.

[2] = target: T1, LXR beta (Homo sapiens, UniProt P55055); assay: LXR beta agonist assay (Lanthascreen TR-FRET); assay type: biochemical; settings: LXR beta-LBD 5 nM, read-out: LXR-β EC50
T1 construct: 5 μL of 4×LXR beta-LBD was added to each well (final concentration 5 nM); purchased Thermofisher PV4658
T1 sequence (P55055 222-460 limits assumed): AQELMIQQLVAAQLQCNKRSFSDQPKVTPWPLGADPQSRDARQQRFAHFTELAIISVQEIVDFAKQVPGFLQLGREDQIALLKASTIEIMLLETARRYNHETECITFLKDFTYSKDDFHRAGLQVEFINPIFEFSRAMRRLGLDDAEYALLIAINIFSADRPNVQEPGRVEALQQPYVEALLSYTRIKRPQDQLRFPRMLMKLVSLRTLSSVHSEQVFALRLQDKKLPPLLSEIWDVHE
Method in brief: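 TR-FRET coactivator recruitment: 5 nM LXR beta-LBD with 100 nM Fl-D22 peptide and 10 nM Tb-anti-GST antibody (final) in Coregulator Buffer G, 60 min at 22° C, read hourly up to 4 hours. Duplicate three-fold titrations from 30 μM; EC50 by variable-slope nonlinear regression.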

[3] = test system: mouse splenocytes; assay: Mouse splenocyte assay, cytokine release (mIFN-γ ELISA); assay type: cell-based; settings: Balb/c splenocytes, CD3e/CD28 and PMA+Ionomycin induced, read-out: Enhancement of mIFN-γ release by activated Mouse Splenocyte, EC50
Method: EC50 values of compounds for enhancement of CD3e/CD28 induced mIFNγ release in mouse splenocytes isolated from Balb/c mice and differentiated (Treg) with PMA+Ionomycin. Mouse splenocytes (2*10^5 cells/well) were activated with Anti-mouse CD3e (0.5 μg/mL, coated overnight at 4° C.; Cat #14-0032-82, eBioscience) and then incubated with Anti-mouse CD28 (1 μg/mL soluble; Cat #16-0289-81, eBiosciences). After 48 hr of incubation serial dilutions of compounds (3 fold, 8 point dose response starting at 1 μM) were left for 6-8 hrs at cell culture conditions and then splenocytes were further incubated with PMA (50 ng/mL final concentration) and 1 μg/mL of Ionomycin (final concentration) and incubated under cell culture conditions overnight after which the supernatant was harvested, diluted to 1:50 and ELISA was performed as per the manufacturer's protocol (mIFN-γ kit; Cat #555138 & 550534, BD Biosciences). Plates were read in Biotek plate reader by measuring absorbance at 450 nm.

[4] = test system: MiaPaCa-2; assay: Cell viability assay (resazurin) in MiaPaCa-2; assay type: cell-based; settings: Homo sapiens, MIA PaCa-2; 96 hr exposure
Method: (§1) HepG2 (ATCC® HB-8065™), hepatocellular carcinoma, A549 (ATCC® CCL-185™), lung epithelial carcinoma, MCF7 (ATCC® HTB-22™), mammary gland epithelial carcinoma, MDA-MB-231 (ATCC® HTB-26™), TNBC, MiaPaCa-2 (ATCC® CRL-1420™) & Panc-1 (ATCC® CRL-1469™), pancreatic epithelial carcinoma, HCT116 (ATCC® CCL-247™), colon epithelial carcinoma and U87MG (ATCC® HTB-14™), brain epithelial carcinoma cell lines respectively were seeded in the respective medium (DMEM, Cat #10569044 with 10% FBS, Cat #16000044; Gibco for HepG2, A549, MCF7, MDA-MB-231, MiaPaCa-2, Panc-1, HCT116 and MEM, Cat #11095080 with 10% FBS for U87MG). Cells were allowed to grow at 37° C. for 24 hr in 5% CO2 (culture conditions) in a Nuaire incubator (humidified). Serially diluted compounds (100 μl) were added to the culture plate 24 hr later and the cultures were further incubated in culture conditions for 96 hr. […] Fluorescence was then measured using a multimodal plate reader (Biotek Synergy Neo) at an excitation wavelength of 535 nm and emission wavelength of 590 nm to obtain relative fluorescence units. Data analysis was done by subtracting the background fluorescence (only medium blank) value from each reading and then normalizing with the vehicle control (DMSO treated cells) to obtain percent survival/proliferation. […]

[5] = test system: U87MG; assay: Cell viability assay (resazurin) in U87MG; assay type: cell-based; settings: Homo sapiens, U-87 MG; 96 hr exposure
Method: as §1

[6] = test system: HepG2; assay: Cell viability assay (resazurin) in HepG2; assay type: cell-based; settings: Homo sapiens, 96 hr exposure
Method in brief: (§2)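 Cells in 10% FBS medium (DMEM; MEM for U87MG) exposed 96 h at 37 °C to serially diluted compound, then 4 h with resazurin (1 mM in medium). Fluorescence (ex 535/em 590 nm) background-subtracted, normalised to DMSO; IC50 by four-parameter variable-slope fit.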

[7] = test system: A549; assay: Cell viability assay (resazurin) in A549; assay type: cell-based; settings: Homo sapiens, 96 hr exposure
Method in brief: as §2

[8] = test system: MDA-MB-231; assay: Cell viability assay (resazurin) in MDA-MB-231; assay type: cell-based; settings: Homo sapiens, 96 hr exposure, read-out: MDA_MB-231 Cell IC50
Method in brief: as §2

[9] = test system: MCF7; assay: Cell viability assay (resazurin) in MCF7; assay type: cell-based; settings: Homo sapiens, 96 hr exposure
Method: HepG2 (ATCC® HB-8065™), hepatocellular carcinoma, A549 (ATCC® CCL-185™), lung epithelial carcinoma, MCF7 (ATCC® HTB-22™), mammary gland epithelial carcinoma, MDA-MB-231 (ATCC® HTB-26™), TNBC, MiaPaCa-2 (ATCC® CRL-1420™) & Panc-1 (ATCC® CRL-1469™), pancreatic epithelial carcinoma, HCT116 (ATCC® CCL-247™), colon epithelial carcinoma and U87MG (ATCC® HTB-14™), brain epithelial carcinoma cell lines respectively were seeded in the respective medium (DMEM, Cat #10569044 with 10% FBS, Cat #16000044; Gibco for HepG2, A549, MCF7, MDA-MB-231, MiaPaCa-2, Panc-1, HCT116 and MEM, Cat #11095080 with 10% FBS for U87MG). Cells were allowed to grow at 37° C. for 24 hr in 5% CO2 (culture conditions) in a Nuaire incubator (humidified). Serially diluted compounds (100 μl) were added to the culture plate 24 hr later and the cultures were further incubated in culture conditions for 96 hr. Experiment was terminated at the completion of 96 hr exposure to the drug by replacing the medium with 100 μl of 1 mM of resazurin (R7017; Sigma) prepared in culture medium and the plates were further incubated in culture conditions for 4 hr. Fluorescence was then measured using a multimodal plate reader (Biotek Synergy Neo) at an excitation wavelength of 535 nm and emission wavelength of 590 nm to obtain relative fluorescence units. Data analysis was done by subtracting the background fluorescence (only medium blank) value from each reading and then normalizing with the vehicle control (DMSO treated cells) to obtain percent survival/proliferation. Percent survival at different doses was used to calculate IC50 by fitting the curve to the “four-parameter variable slope logistic model” using Prism Graph Pad.

[10] = test system: ApoE; assay: THP-1 Western blotting assay (ApoE); assay type: cell-based; settings: 30 μM
Method: THP-1 cells (2×10^6 cells/well) were differentiated with PMA (10 ng/mL) for 24 following which the cells were treated with different concentrations (30 μM and 10 μM) of compound for 18 hour in cell culture conditions (5% CO2, 37° C.). The cells were lysed using 1×RIPA (Cat #9806; Cell Signaling Technologies) buffer with Protease inhibitor (1×) (Cat #P830, Sigma) and sonicated. Whole cell lysate was collected and protein estimation was done using Bradford Reagent. The samples were subjected to SDS PAGE Electrophoresis and the protein bands were transferred onto PVDF membrane using wet transfer. The membrane was further blocked with 5% non-fat dry milk and incubated with primary antibody (ApoE; 1:1000, Cat #D7I9N, ABCA1; 1:1000, Cat #96292S; Cell Signaling Technologies) and secondary antibody (Anti rabbit IgG 1:2000, Cat #7074S, Cell Signaling Technologies). The membrane was then developed using ECL reagent (Ref. 32106, Thermo Fisher Scientific) in a gel doc system. The expression of protein was quantified by densitometry analysis.

[11] = target: T2, LXR alpha (Homo sapiens, UniProt Q13133); assay: LXR alpha agonist assay (Lanthascreen TR-FRET); assay type: biochemical; settings: LXR alpha-LBD 2.5 nM, read-out: LXR-α EC50
T2 construct: 5 μL of 4×LXR alpha-LBD was added to each well (final concentration 2.5 nM); purchased Thermofisher PV4655
T2 sequence (Q13133 209-447 limits assumed): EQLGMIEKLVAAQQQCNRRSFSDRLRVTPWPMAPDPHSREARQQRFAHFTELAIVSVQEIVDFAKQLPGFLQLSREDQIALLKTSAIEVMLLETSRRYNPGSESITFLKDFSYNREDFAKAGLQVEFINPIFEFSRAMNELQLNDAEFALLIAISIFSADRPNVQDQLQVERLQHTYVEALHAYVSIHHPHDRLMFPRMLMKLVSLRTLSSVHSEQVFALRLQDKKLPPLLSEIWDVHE
Method: EC50 values of compounds against LXR alpha were determined at Integral BioSciences (India) using Lanthascreen TR-FRET (Thermofisher, Cat #PV4655). Assay was performed in a 20 μL final volume in a Black 384-well plate (Corning, Cat #4511). Dose response curve for the compounds were prepared in duplicates with starting concentration at 30 μM and a three-fold titration was performed. The reaction buffer consisted of TR-FRET Coregulator Buffer H. To the compound dilution, 5 μL of 4×LXR alpha-LBD was added to each well (final concentration 2.5 nM). An equal volume (5 μL) containing 4×Fl-D22/Tb-anti GST antibody (final concentration 250 nM/10 nM) was added to initiate the enzyme reaction and the reaction was incubated for 60 min at 22° C. after which the plates were read using BioTek Plate reader for TR-FRET every hour up to 4 hours.
Analysis was done using the standard curve by non-linear regression, variable slope inhibitor curve fits (Graph-Pad Prism) and EC50's of compounds were determined wherever possible.

[12] = test system: THP1; assay: Cell viability assay in THP1; assay type: cell-based; settings: Homo sapiens, THP-1
[13] = test system: HCT116; assay: Cell viability assay (resazurin) in HCT116; assay type: cell-based; settings: Homo sapiens, HCT-116; 96 hr exposure
Method in brief: as §2

SMILES: O=c1[nH]ccc2cc(N3CCC(C4CCN(S(=O)(=O)c5ccccc5C(F)(F)F)CC4)CC3)cc(Cl)c12 [Compound 1.14, 8-chloro-6-(1′-(2-(trifluoromethyl)phenylsulfonyl)-4,4′-bipiperidin-1-yl)isoquinolin-1(2H)-one]
- IC50 [1]: 22.9 µM
- EC50 [2]: 2.51 µM
- EC50 [3]: 0.05 µM

SMILES: O=c1[nH]ccc2cc(N3CCC(C4CCN(S(=O)(=O)c5ccccc5Cl)CC4)CC3)cc(Cl)c12 [Compound 1.16, 8-chloro-6-(1′-((2-chlorophenyl)sulfonyl)-[4,4′-bipiperidin]-1-yl)isoquinolin-1(2H)-one]
- IC50 [1]: 14.9 µM

SMILES: CN(C)C(=O)c1ccc(N2CCN(C3CC4(C3)CN(C(=O)C(O)(c3ccccc3)C(F)(F)F)C4)CC2)cc1Cl (centres unmarked) [Compound 1.4, 2-chloro-N,N-dimethyl-4-(4-(2-(3,3,3-trifluoro-2-hydroxy-2-phenylpropanoyl)-2-azaspiro[3.3]heptan-6-yl)piperazin-1-yl)benzamide]
- IC50 [4]: > 30 µM
- IC50 [5]: > 30 µM
- IC50 [6]: > 30 µM
- IC50 [7]: > 30 µM
- EC50 [2]: 0.45 µM
- IC50 [8]: > 30 µM
- IC50 [9]: > 30 µM

SMILES: CC(C)(C(=O)N1CCC(N2CCN(c3cc(Cl)c4c(=O)[nH]ccc4c3)CC2)CC1)C(F)(F)F [Compound 1.21, 8-chloro-6-(4-(1-(3,3,3-trifluoro-2,2-dimethylpropanoyl)piperidin-4-yl)piperazin-1-yl)isoquinolin-1(2H)-one]
- IC50 [1]: > 30 µM
- EC50 [3]: 0.111 µM

SMILES: CC(C)(C(=O)N1CCC(C2CCN(c3cc(Cl)c4c(=O)[nH]ccc4c3)CC2)CC1)C(F)(F)F [Compound 1.23, 8-chloro-6-(1′-(3,3,3-trifluoro-2,2-dimethylpropanoyl)-4,4′-bipiperidin-1-yl)isoquinolin-1(2H)-one]
- IC50 [1]: 1.5 µM

SMILES: CC(C)[C@](O)(C(=O)N1CCC(N2CC(Nc3ccc(C(=O)N(C)C)c(Cl)c3)C2)CC1)C(F)(F)F (single isomer, unassigned) [Compound 1.45]
- ApoE normalized with Vehicle treated (DMSO) Control ([10]; 18 hour, PMA-differentiated THP-1 cells, densitometry, control = 100): 132.1
- Fold Difference ([10]; ApoE vs DMSO control, THP-1 cells): 1.32
- IC50 [7]: > 30 µM
- EC50 [2]: 1.21 µM
- EC50 [11]: > 30 µM
- IC50 [8]: > 30 µM
- IC50 [12]: > 30 µM
- IC50 [13]: > 30 µM

SMILES: CN(C)C(=O)c1ccc(NC2CN(C3CCN(C(=O)C(O)(c4ccccc4)C(F)(F)F)CC3)C2)cc1Cl (centres unmarked) [Compound 1.3, 2-chloro-N,N-dimethyl-4-(1-(1-(3,3,3-trifluoro-2-hydroxy-2-phenylpropanoyl)piperidin-4-yl)azetidin-3-ylamino)benzamide]
- IC50 [4]: > 30 µM
- IC50 [5]: > 30 µM
- IC50 [6]: 13.8 µM
- IC50 [7]: > 30 µM
- EC50 [2]: 1.12 µM
- IC50 [8]: > 30 µM
- IC50 [9]: > 25.7 µM

— US20220363662A1, “COMPOUNDS AS LXR AGONISTS” (Integral Biosciences Privated Limited, priority 2021, published 2022)
